Data on six compounds can be found in EPA's ToxRefDB 2.

For series [1], the system named is rat. Conditions: Sub-acute repeat dose toxicity; sprague dawley; Oral; Gavage/Intubation; dose end: 28 day; group: systemic; systemic / clinical chemistry / alanine aminotransferase (alt/sgpt) / alanine aminotransferase (alt/sgpt) + systemic / clinical chemistry / ….
In series [2] the test system is dog. Conditions: Sub-acute repeat dose toxicity; beagle; Oral; Gavage/Intubation; dose end: 28 day; group: systemic; systemic / clinical chemistry / alanine aminotransferase (alt/sgpt) / alanine aminotransferase (alt/sgpt) + systemic / clinical chemistry / ….
Series [3] relates to rat. Conditions: Other (NonGuideline or Guideline Not Listed); sprague dawley; Injection; Intravenous; dose end: 3 day; group: cannot be grouped; systemic / clinical chemistry / chloride / chloride + systemic / clinical chemistry / creatinine / creatinine + systemic / clinical ….
Series [4] relates to rat. Conditions: Sub-acute repeat dose toxicity; sprague dawley; Injection; Intravenous; dose end: 13 day; group: systemic; systemic / clinical chemistry / alanine aminotransferase (alt/sgpt) / alanine aminotransferase (alt/sgpt) + systemic / clinical chemistry / ….
For series [5], the system named is rat. Particulars: Other (NonGuideline or Guideline Not Listed); wistar; Injection; Intravenous; dose end: 3 day; group: cannot be grouped; systemic / clinical chemistry / cholesterol / cholesterol + systemic / clinical chemistry / creatinine / creatinine + systemic / clinical ….
The subject of series [6] is mouse. Conditions: Other (NonGuideline or Guideline Not Listed); cd1; Injection; Intravenous; dose end: 7 day; group: cannot be grouped; systemic / clinical chemistry / alanine aminotransferase (alt/sgpt) / alanine aminotransferase (alt/sgpt) + systemic / clinical chemistry / ….
The test system of series [7] is rat. Particulars: Carcinogenicity, fischer, Oral, Feed, dose end: 78 week, group: systemic.
In series [8] the test system is mouse. Particulars: Carcinogenicity, b6c3f1, Oral, Feed, dose end: 78 week, group: systemic.
Series [9] deals with rabbit. Conditions: Prenatal developmental toxicity study; new zealand white; Oral; Gavage/Intubation; dose end: 18 GD; group: maternal; systemic / in life observation / body weight / body weight + systemic / in life observation / body weight / body weight gain + systemic / in….
For series [10], the system named is rat. Conditions: Developmental neurotoxicity study; sprague dawley; Oral; Gavage/Intubation; dose end: 68 PND; group: cannot be grouped; systemic / in life observation / mortality / mortality.
Series [11] has as its system rat. Particulars: Neurotoxicity screening battery; fischer; Inhalation; Whole-Body; dose end: 1 day; group: cannot be grouped; systemic / in life observation / clinical signs / abnormal gait + systemic / in life observation / clinical signs / body temperature + ….
For series [12], the system named is rat. Particulars: Subchronic inhalation toxicity, fischer, Whole-Body, dose end: 13 week, group: systemic.
The subject of series [13] is mouse. Conditions: Subchronic inhalation toxicity, cd1, Whole-Body, dose end: 13 week, group: systemic.
Series [14] relates to rat. Particulars: Prenatal developmental toxicity study, Sprague-Dawley, Oral, Gavage/Intubation, dose end: 15 GD.
The subject of series [15] is rat. Conditions: Carcinogenicity, fischer, Inhalation, Whole-Body, dose end: 104 week, group: systemic.
The subject of series [16] is dog. Conditions: Chronic toxicity, beagle, Oral, Feed, dose end: 12 month, group: systemic.
Series [17] deals with mouse. Conditions: Carcinogenicity, cd1, Oral, Feed, dose end: 78 week, group: systemic.
Series [18] deals with rat. Particulars: Subchronic oral toxicity in rodents, sprague dawley, Feed, dose end: 13 week, group: systemic.
For series [19], the system named is rat. Conditions: Combined chronic toxicity/carcinogenicity, other, Oral, Feed, dose end: 24 month, group: systemic.
The test system of series [20] is rat. Conditions: Multigenerational reproductive toxicity study, sprague dawley, Oral, Feed, dose end: 2 generation.
Series [21] deals with rat. Particulars: Subchronic oral toxicity in rodents, sprague dawley, Gavage/Intubation, dose end: 90 day, group: systemic.
Series [22] deals with rat. Particulars: Neurotoxicity screening battery; sprague dawley; Oral; Gavage/Intubation; dose end: 13 week; group: cannot be grouped; systemic / in life observation / body weight / body weight gain + systemic / in life observation / clinical signs / red or crusty deposits ….
For series [23], the system named is rabbit. Particulars: Subchronic dermal toxicity, new zealand white, Topical, dose end: 90 day, group: systemic, systemic / in life observation / clinical signs / erythema.
Where [24] appears, read: systemic / in life observation / body weight / body weight.
[25] abbreviates: systemic / pathology microscopic / liver / carcinoma + systemic / pathology microscopic / zymbal's gland / squamous cell carcinoma + ….
The mark [26] stands for this setting: systemic / in life observation / body weight / body weight + systemic / pathology microscopic / liver / carcinoma + systemic / in life ….
[27] abbreviates: systemic / in life observation / clinical signs / reduced activity.
Where [28] appears, read: systemic / in life observation / clinical signs / reduced activity + systemic / hematology / erythrocyte (rbc) count differential / ….
[29] abbreviates: systemic / in life observation / body weight / body weight + systemic / in life observation / body weight / body weight gain + systemic / in….
The mark [30] stands for this setting: group: developmental, systemic / in life observation / body weight / fetal weight.
Setting [31] is: group: maternal, systemic / in life observation / body weight / body weight gain + systemic / in life observation / mortality / mortality + systemic / organ ….
The mark [32] stands for this setting: systemic / pathology microscopic / testes / adenoma.
Setting [33] is: systemic / pathology microscopic / liver / pigmentation.
Where [34] appears, read: systemic / pathology microscopic / liver / pigmentation + systemic / pathology microscopic / liver / hypertrophy.
[35] abbreviates: systemic / organ weight / liver / absolute + systemic / organ weight / liver / relative to body weight + systemic / pathology microscopic / ….
Setting [36] is: systemic / pathology microscopic / kidney / mineralization.
[37] abbreviates: systemic / organ weight / liver / relative to body weight.
[38] abbreviates: systemic / organ weight / liver / absolute.
Where [39] appears, read: group: offspring, systemic / in life observation / body weight / offspring (pup) weight.
The mark [40] stands for this setting: group: parental, systemic / in life observation / body weight / body weight.

The structures appear in SMILES notation.

As a reminder, the LOAEL is the lowest dose or exposure tested at which an adverse effect was seen. Usually NOAEL stands for the highest tested level that showed no adverse finding. Consider `CNS(=O)(=O)c1cc(C(=O)N2CCC(CCN3C4CCC3CC(n3c(C)nc5ccccc53)C4)(c3cccc(F)c3)CC2)c(Cl)cc1F` (stereo not drawn), for which, in the series on rat [1], the LEL stood at 500 mg/kg/day, the LOAEL is greater than 2000 mg/kg/day, the NEL is less than 500 mg/kg/day and the NOAEL was no less than 2000 mg/kg/day. Further, in the series on dog [2], the LEL was found to be 250 mg/kg/day, the lowest observed adverse effect level (LOAEL) is greater than 750 mg/kg/day, the NEL is less than 250 mg/kg/day and the NOAEL was no less than 750 mg/kg/day.

With `C[C@@H](O)[C@H]1C(=O)N2C(C(=O)[O-])=C(CN3c4cccc5c(CC[N+]67CC[N+](CC(N)=O)(CC6)CC7)ccc(c45)S3(=O)=O)[C@H](C)[C@H]12.[Cl-]`, the LEL with rat [3] was 150 mg/kg/day; in the series with rat [4] it was 150 mg/kg/day; with rat [5] it was 150 mg/kg/day; in the series with mouse [6], 400 mg/kg/day. Besides, the LOAEL is greater than 150 mg/kg/day in the series with rat [3], greater than 225 mg/kg/day in the series on rat [4], greater than 225 mg/kg/day in the series on rat [5] and greater than 800 mg/kg/day with mouse [6]. Moreover, the NEL in the series with rat [3] is less than 150 mg/kg/day; in the series on rat [4] it was 75 mg/kg/day; with rat [5], 75 mg/kg/day; with mouse [6] it was 200 mg/kg/day. For the same compound, the NOAEL was no less than 150 mg/kg/day in the series with rat [3], no less than 225 mg/kg/day in the series with rat [4], no less than 225 mg/kg/day with rat [5] and no less than 800 mg/kg/day with mouse [6].

In the series with rat [7] (setting [24]), `c1ccc(NNc2ccccc2)cc1` [1,2-Diphenylhydrazine] showed an LEL of 2 mg/kg/day and an NEL of less than 2 mg/kg/day. In the series with rat [7] (setting [25]), the LOAEL was greater than 4 mg/kg/day and the NOAEL is no less than 4 mg/kg/day. The compound also came in with an LOAEL in the series on mouse [8] (setting [24]) of 60 mg/kg/day. Also, in the series on mouse [8] (setting [26]), the LEL worked out at 60 mg/kg/day, the NEL amounted to 6 mg/kg/day and the NOAEL came out at 6 mg/kg/day.

For `CC(C)O` [Isopropanol], the LEL with rabbit [9] was 480 mg/kg/day; in the series with rat [10] it was 1200 mg/kg/day; with rat [11] it was 5000 ppm; in the series with rat [12] (setting [27]), 500 ppm; in the series on mouse [13] (systemic / in life observation / clinical signs / ataxia + systemic / in life observation / clinical signs / lethargy + systemic / in life …) it was 1500 ppm; in the series on rat [14] (setting [30]), 800 mg/kg/day. For the same compound, the LEL in the series with rat [14] (group: maternal, systemic / in life observation / mortality / mortality) was determined as 800 mg/kg/day; in the series with rat [15] (setting [32]), 500 ppm. In addition, the LOAEL is greater than 480 mg/kg/day in the series on rabbit [9]; 1200 mg/kg/day with rat [10]; greater than 10000 ppm in the series on rat [11]; greater than 5000 ppm in the series with rat [12] (setting [28]); greater than 5000 ppm in the series on mouse [13] (setting [29]); greater than 1200 mg/kg/day in the series with rat [14] (setting [30]). For the same compound, the LOAEL is greater than 1200 mg/kg/day in the series on rat [14] (setting [31]) and 2500 ppm in the series with rat [15] (setting [29]). Also, the NEL is 240 mg/kg/day in the series on rabbit [9]; 700 mg/kg/day in the series with rat [10]; 1500 ppm with rat [11]; less than 500 ppm in the series on rat [12] (setting [27]); 500 ppm with mouse [13] (setting [29]); 400 mg/kg/day in the series with rat [14] (setting [30]). Further, the NEL is 400 mg/kg/day in the series on rat [14] (setting [31]) and less than 500 ppm in the series with rat [15] (setting [32]). Also, the NOAEL in the series on rabbit [9] was no less than 480 mg/kg/day; with rat [10], 700 mg/kg/day; with rat [11], no less than 10000 ppm; in the series on rat [12] (setting [28]), no less than 5000 ppm; in the series with mouse [13] (setting [29]) it was no less than 5000 ppm; in the series on rat [14] (setting [30]), no less than 1200 mg/kg/day. Moreover, the NOAEL is no less than 1200 mg/kg/day with rat [14] (setting [31]) and 500 ppm in the series with rat [15] (setting [29]).

Take `CCCCC(CC)CN1C(=O)C2C3C=CC(C3)C2C1=O` (stereo not drawn) [MGK-264]: the NEL is 7.5 mg/kg/day in the series with dog [16] (setting [33]); less than 49.5 mg/kg/day in the series on mouse [17] (setting [36]); less than 140 mg/kg/day in the series on rat [18] (setting [37]); less than 50 mg/kg/day with rat [19] (setting [38]); less than 61 mg/kg/day with rat [20] (setting [39]); less than 61 mg/kg/day in the series on rat [20] (setting [40]). For the same compound, the NOAEL in the series with dog [16] (setting [33]) is 7.5 mg/kg/day; in the series on mouse [17] (setting [35]) it was 49.5 mg/kg/day; in the series with rat [18] (systemic / organ weight / liver / absolute + systemic / organ weight / liver / relative to body weight + systemic / clinical chemistry / …) it was 130 mg/kg/day; with rat [19] (systemic / pathology microscopic / liver / hypertrophy + systemic / pathology microscopic / liver / proliferation + systemic / in life …), 50 mg/kg/day; in the series with rat [20] (setting [39]) it was less than 61 mg/kg/day. In addition, the LEL in the series with dog [16] (setting [34]) stood at 33.7 mg/kg/day; in the series on mouse [17] (setting [36]) it was 49.5 mg/kg/day; with rat [18] (setting [37]), 140 mg/kg/day; in the series with rat [19] (setting [38]), 50 mg/kg/day; in the series with rat [20] (setting [39]) it was 61 mg/kg/day; with rat [20] (setting [40]) it was 61 mg/kg/day. Besides, the LOAEL is 33.7 mg/kg/day in the series on dog [16] (setting [34]); 396 mg/kg/day in the series with mouse [17] (setting [35]); 260 mg/kg/day with rat [18] (systemic / organ weight / liver / absolute + systemic / organ weight / liver / relative to body weight); 150 mg/kg/day in the series with rat [19] (systemic / pathology microscopic / liver / hypertrophy + systemic / pathology microscopic / liver / proliferation + systemic / organ weight…); 61 mg/kg/day with rat [20] (setting [39]).

Consider `CN(C)C(=S)[S-].[Na+]` [Sodium dimethyldithiocarbamate], for which the LOAEL with rat [21] (systemic / clinical chemistry / alkaline phosphatase (alp/alk) / alkaline phosphatase (alp/alk) + systemic / clinical chemistry / glucose / …) was 250 mg/kg/day; in the series with rat [22], 250 mg/kg/day; in the series on rabbit [23], 50 mg/kg/day. The LEL in the series on rat [21] (setting [37]) is 0.5 mg/kg/day; with rat [22], 250 mg/kg/day; in the series with rabbit [23], 50 mg/kg/day. Besides, the NEL in the series with rat [21] (setting [37]) is less than 0.5 mg/kg/day; with rat [22], 5 mg/kg/day; in the series on rabbit [23], less than 50 mg/kg/day. For the same compound, the NOAEL is 5 mg/kg/day with rat [21] (systemic / organ weight / liver / relative to body weight + systemic / clinical chemistry / alkaline phosphatase (alp/alk) / alkaline …), 5 mg/kg/day in the series on rat [22] and less than 50 mg/kg/day in the series on rabbit [23].
